Experimental data taken from patent US4382923A, “Tetrapeptide acylhydrazides, their production and use” (Takeda Chemical Industries, Ltd., priority 1980, dated 1983).

Columns and labels:
[1] = intravenous route; cited from earlier work
[2] = direct intracerebral administration; cited from earlier work
[3] = test system: Slc:ICR mice; assay: Phenylquinone writhing method; type: in vivo; settings: oral route; reference
Experimental: Phenylquinone writhing method
The compound (I) of the present invention was administered orally or subcutaneously to Slc:ICR mice weighing 18-20 g. According to the method of E. Siegmund, R. Cadmus and G. Lu [Proc. Soc.Exp.Biol, Med. 95, 729 (1957)], 0.02% phenylquinone in 5% ethanol saline was injected intraperitoneally in a dose of 0.1 ml/10 g body weight 30 min. after administration of the compound (I). The frequency of abdominal writhing was then counted for 20 min. Analgesic effect was indicated by comparing test group with control group.

Molecule	analgesic effect [1]	morphinomimetic activity [2]	effective dose, analgesic activity (abdominal writhing) [3] [mg/kg]
β-endorphin (YGGFMTSEKSQTPLVTLFKNAIIKNAYKKGE; Beta-endorphin; UniProt P01189 237-267, looked up) [polypeptide consisting of 31 amino acid moieties, peptide-type analgesic]	overt analgesic action		
H-Tyr-Gly-Gly-Phe-Met-OH (H-YGGFM-OH) [enkephalin, pentapeptide isolated from the pig brain]	do not produce analgesic effects	show morphinomimetic activity	
H-Tyr-Gly-Gly-Phe-Leu-OH	do not produce analgesic effects	show morphinomimetic activity	
CN1CC[C@]23c4c5ccc(O)c4O[C@H]2[C@@H](O)C=C[C@H]3[C@H]1C5 [morphine]			2.5
